Values of other authors in PubChem BioAssay AID1259409 (Chemical Carcinogenesis Research Information System (CCRIS), 2018).

Tested on: rodent chemically induced tumor inhibition, incidence and multiplicity
Assay: CCRIS tumor inhibitor studies
Conditions: Carcinogen: 2,2'-DIHYDROXY-DI-N-PROPYLNITROSAMINE, 53609-64-6, 13147-25-6, Carcinogen: 2,2'-DIHYDROXY-DI-N-PROPYLNITROSAMINE, 53609-64-6, 13147-25-6, Dose [Inhibitor]: 0, Route [Inhibitor]: ORAL, Species: RAT, Promoter: NONE USED; for tumour outcome (control, treated, inhibition, significance): N-ETHYL-N-HYDROXYETHYLNITROSAMINE, Dose [Carcinogen]: 1000 MG/KG BW DHPN TWICE

SMILES: O=P(O)(O)OC1C(OP(=O)(O)O)C(OP(=O)(O)O)C(OP(=O)(O)O)C(OP(=O)(O)O)C1OP(=O)(O)O (stereo not given)
- outcome (N-ETHYL-N-HYDROXYETHYL- NITROSAMINE, 3,2'-DIMETHYL-4-, N-ETHYL-N-HYDROXYETHYL- NITROSAMINE, 3,2'-DIMETHYL-4-, 2% IN DIET BEGINNING 1 WK POST LAST CARCINOGEN DOSE AND CONTINUING FOR 32 WK (STUDY DURATION: 36 WK), Strain/Sex: F344/MALE, Target Tissue: Type of Lesion: URINARY BLADDER: PAPILLOMA, Dose [Carcinogen]: 1000 MG/KG/ IP DHPN 2X, 1500 MG/KG/ GAV EHEN 2X AND 75 MG/KG SC DMAB 3X GIVEN OVER THE INITIAL 3 WK PERIOD AT 3-4 D INTE): 0/14 (0%), 6/12 (50%), p<0.01n
- tumour outcome (control, treated, inhibition, significance) (3,2'-DIMETHYL-1,4-, 3,2'-DIMETHYL-1,4-, 1% IN DIET FOR 4 WK BEGINNING 1 D PRIOR TO FIRST CARCINOGEN DOSE (STUDY DURATION: 36 WK), Strain/Sex: F344/MALE, Target Tissue: Type of Lesion: KIDNEY: ADENOMA, 1500 MG/KG EHEN TWICE, 75 MG/KG BW DMAB 3 TIMES, SEQUENTIALLY OVER 3 WK): 6/10 (60%), 6/14 (43%), 28%, not significant
- tumour outcome (control, treated, inhibition, significance) (3,2'-DIMETHYL-1,4-, 3,2'-DIMETHYL-1,4-, 1% IN DIET FOR 4 WK BEGINNING 1 D PRIOR TO FIRST CARCINOGEN DOSE (STUDY DURATION: 36 WK), Strain/Sex: F344/MALE, Target Tissue: Type of Lesion: LUNG: ADENOMA, 1500 MG/KG EHEN TWICE, 75 MG/KG BW DMAB 3 TIMES, SEQUENTIALLY OVER 3 WK): 5/10 (50%), 9/14 (64%), -28%, not significant
- tumour outcome (control, treated, inhibition, significance) (3,2'-DIMETHYL-4-AMINO-, 3,2'-DIMETHYL-4-AMINO-, 2% IN DIET FOR 32 WK BEGINNING 1 WK POST CARCINOGEN TREATMENT (STUDY DURATION: 36 WK0, Strain/Sex: F344/MALE, Target Tissue: Type of Lesion: KIDNEY: NEPHROBLASTOMA, 1500 MG/KG BW EHEN TWICE, 75 MG/KG BW 3 TIMES ADMINISTERED OVER FIRST 3 WK): 2/14 (14%), 3/12 (25%), -79%, not significant
- tumour outcome (control, treated, inhibition, significance) (3,2'-DIMETHYL-4-AMINO-, 3,2'-DIMETHYL-4-AMINO-, 2% IN DIET FOR 32 WK BEGINNING 1 WK POST CARCINOGEN TREATMENT (STUDY DURATION: 36 WK), Strain/Sex: F244/MALE, Target Tissue: Type of Lesion: THYROID GLAND: CARCINOMA, 1500 MG/KG BW EHEN TWICE, 75 MG/KG BW 3 TIMES ADMINISTERED OVER FIRST 3 WK): 3/14 (21%), 2/12 (17%), 19%, not significant
- tumour outcome (control, treated, inhibition, significance) (3,2'-DIMETHYL-4-AMINO-, 3,2'-DIMETHYL-4-AMINO-, 2% IN DIET FOR 32 WK BEGINNING 1 WK POST CARCINOGEN TREATMENT (STUDY DURATION: 36 WK), Strain/Sex: F344/MALE, Target Tissue: Type of Lesion: KIDNEY: ADENOMA, 1500 MG/KG BW EHEN TWICE, 75 MG/KG BW 3 TIMES ADMINISTERED OVER FIRST 3 WK): 6/14 (43%), 7/12 (58%), -35%, not significant
- tumour outcome (control, treated, inhibition, significance) (3,2'-DIMETHYL-4-AMINO-, 3,2'-DIMETHYL-4-AMINO-, 2% IN DIET FOR 32 WK BEGINNING 1 WK POST CARCINOGEN TREATMENT (STUDY DURATION: 36 WK), Strain/Sex: F344/MALE, Target Tissue: Type of Lesion: KIDNEY: TRANSITIONAL CELL CARCINOMA, 1500 MG/KG BW EHEN TWICE, 75 MG/KG BW 3 TIMES ADMINISTERED OVER FIRST 3 WK): 1/14 (7%), 2/12 (17%), -143%, not significant
- tumour outcome (control, treated, inhibition, significance) (3,2'-DIMETHYL-4-AMINO-, 3,2'-DIMETHYL-4-AMINO-, 2% IN DIET FOR 32 WK BEGINNING 1 WK POST CARCINOGEN TREATMENT (STUDY DURATION: 36 WK), Strain/Sex: F344/MALE, Target Tissue: Type of Lesion: LARGE INTESTINE: CARCINOMA, 1500 MG/KG BW EHEN TWICE, 75 MG/KG BW 3 TIMES ADMINISTERED OVER FIRST 3 WK): 3/14 (21%), 4/12 (33%), -57%, not significant
- tumour outcome (control, treated, inhibition, significance) (3,2'-DIMETHYL-4-AMINO-, 3,2'-DIMETHYL-4-AMINO-, 2% IN DIET FOR 32 WK BEGINNING 1 WK POST CARCINOGEN TREATMENT (STUDY DURATION: 36 WK), Strain/Sex: F344/MALE, Target Tissue: Type of Lesion: LIVER: HEPATOCELLULAR CARCINOMA, 15OO MG/KG BW EHEN TWICE, 75 MG/KG BW 3 TIMES ADMINISTERED OVER FIRST 3 WK): 6/14 (43%), 1/12 (8%), 81%, not significant
- tumour outcome (control, treated, inhibition, significance) (3,2'-DIMETHYL-4-AMINO-, 3,2'-DIMETHYL-4-AMINO-, 2% IN DIET FOR 32 WK BEGINNING 1 WK POST CARCINOGEN TREATMENT (STUDY DURATION: 36 WK), Strain/Sex: F344/MALE, Target Tissue: Type of Lesion: LUNG: ADENOMA, 1500 MG/KG BW EHEN TWICE, 75 MG/KG BW 3 TIMES ADMINISTERED OVER FIRST 3 WK): 7/14 (50%), 9/12 (75%), -50%, not significant
